Several values for one entry are separate records, joined by “and”; a condition that tells them apart may be missing. Equal values may be shown once.
Key:
[1] = system: Sprague Dawley rats; test: Novelty-Induced Suppressed Feeding (NSF) Test; assay type: in vivo, rat; settings: for Latency (sec) to feed: 60 min before the test
Procedure: The NSF test is used to assess the anti-anxiety effect of a drug [Bodnoff et al. Psychopharmacology 1988, 95(3), 298-307]. Sprague Dawley rats were used in the NSF test. The testing apparatus comprises a brightly lit open area covered with lab chow pellets. Forty-eight hours prior to behavioral testing, all food was removed from the apparatus. Animals treated with compound 5b (40 or 80 mg/kg) were injected 60 min before the test, whereas animals treated with vehicle (DMSO/saline 7:3) or diazepam were injected 45 min before the test. The drugs were administered subcutaneously and the experiments were conducted after 5:30 PM. The latency to feed, defined as chewing the food as opposed to merely sniffing or playing with a pellet, was then recorded (Table 6). The experiment was terminated for those animals that had not begun eating within a period of 360 seconds, which animals were assigned a latency score of 360 seconds. All analyses were conducted using Sigma Stats and SPSS software. The results are expressed as the mean±SEM per n (number) animals tested (*, p<0.01, ANOVA or t test).

[2] = biological target: T1, cloned human MT2 receptors (Homo sapiens, UniProt P49286); test: 2-[125I]iodomelatonin competition binding, human MT2 in NIH3T3 cells; settings: human recombinant receptors expressed in NIH3T3 cells
T1 construct: expressed in transfected cells
T1 sequence (P49286 1-362): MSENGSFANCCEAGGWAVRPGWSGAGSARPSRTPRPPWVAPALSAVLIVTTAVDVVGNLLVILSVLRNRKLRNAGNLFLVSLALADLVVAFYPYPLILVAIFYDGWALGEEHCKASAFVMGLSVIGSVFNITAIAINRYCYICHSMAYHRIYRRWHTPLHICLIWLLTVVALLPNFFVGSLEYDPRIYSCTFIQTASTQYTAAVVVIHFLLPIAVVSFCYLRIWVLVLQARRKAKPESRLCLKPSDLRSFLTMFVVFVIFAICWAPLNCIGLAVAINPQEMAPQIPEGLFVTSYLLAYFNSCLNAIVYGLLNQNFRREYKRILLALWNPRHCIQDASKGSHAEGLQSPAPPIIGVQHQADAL

[3] = biological target: T2, cloned human MT1 receptors (Homo sapiens, UniProt P48039); test: [35S]GTPγS binding assay, NIH3T3 cells expressing human MT1; assay type: biochemical
T2 construct: expressed in transfected cells

[4] = system: Adult Sprague Dawley rats; test: Elevated plus maze (EPM); assay type: in vivo, rat; settings: for Head Dips / Percentage of time in Closed Arms / Percentage of time in Open Arms / Total time duration in the Closed Arms / Total time duration in the Open Arms: injected 60 min before test
Procedure: The maze is comprised of two open arms (50×10 cm) and two closed arms (50×10×40 cm) that extend from a common central platform (10×10 cm). The apparatus, made of wood (painted black) was elevated to a height of 80 cm above floor level. The closed arms are located opposite one another. Behavior is recorded over a period of 5 min using a video camera positioned directly above the maze and rated by an observer blind to drug conditions. The major measure of interest is the amount of time spent in the open arms. As an index of general activity and distribution, the total number of entries into both open and closed arms was also recorded. […] In order to increase the sensitivity of this test to anxiolytic activity, tests are carried out under normal room illumination (25 W bulb).

[5] = 5b 40, 60 and 80 mg/kg, injected 60 min before the test, vs vehicle

T2 sequence (P48039 whole entry): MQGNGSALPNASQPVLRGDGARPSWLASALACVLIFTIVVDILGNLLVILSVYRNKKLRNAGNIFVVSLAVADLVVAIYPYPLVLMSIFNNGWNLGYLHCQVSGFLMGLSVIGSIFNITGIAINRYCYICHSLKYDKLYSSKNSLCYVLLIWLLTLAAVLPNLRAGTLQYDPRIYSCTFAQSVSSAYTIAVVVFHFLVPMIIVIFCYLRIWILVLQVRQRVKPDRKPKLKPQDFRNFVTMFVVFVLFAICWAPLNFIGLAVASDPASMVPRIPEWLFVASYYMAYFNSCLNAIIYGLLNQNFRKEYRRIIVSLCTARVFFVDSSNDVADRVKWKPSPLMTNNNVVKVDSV

COc1cccc(N(CCNC(C)=O)c2ccccc2)c1 [5b, N-{2-[(3-Methoxyphenyl)-phenylamino]ethyl}acetamide]
Latency (sec) to feed ([1]; 5b 40 mg/kg s.c.): 106.75 ± 10.13 (P ≦ 0.001)* sec
Latency (sec) to feed ([1]; 5b 80 mg/kg s.c.): 115.28 ± 13.89 (P ≦ 0.001)* sec
latency to feed (FIG. 5) ([1]; 5b 40 and 80 mg/kg, injected 60 min before the test, vs vehicle): decreased latency to feed
higher affinity for the MT2 than for the MT1 subtype [2]: ~100 fold
functional behaviour (maximal stimulation of basal [35S]GTPγS binding lower than melatonin) ([3]; MT1 and MT2): partial agonist
MT1 IAr ± SEM (relative intrinsic activity) ([3]; maximal net effect relative to MLT): 0.8 and 0.79 ± 0.03
Head Dips ([4]; 5b 40 mg/kg): 6.30 ± 0.98
Percentage of time in Closed Arms ([4]; 5b 40 mg/kg): 82.30 ± 2.63%
Percentage of time in Open Arms ([4]; 5b 40 mg/kg): 17.7 ± 2.6%
Total time duration in the Closed Arms ([4]; 5b 40 mg/kg): 219.4 ± 9.38 sec/closed arm
Total time duration in the Open Arms ([4]; 5b 40 mg/kg): 47.4 ± 6.86 sec/open arm
Head Dips ([4]; 5b 60 mg/kg): 8.27 ± 1.42
Percentage of time in Closed Arms ([4]; 5b 60 mg/kg): 74.47 ± 4.06 (P = 0.02) %
Percentage of time in Open Arms ([4]; 5b 60 mg/kg): 25.5 ± 4.1 (P = 0.02) %
Total time duration in the Closed Arms ([4]; 5b 60 mg/kg): 199.83 ± 11.33 (P = 0.01) sec/closed arm
Total time duration in the Open Arms ([4]; 5b 60 mg/kg): 68.93 ± 11.02 (P = 0.02) sec/open arm
Head Dips ([4]; 5b 80 mg/kg): 9.91 ± 1.50 (P = 0.02)
Percentage of time in Closed Arms ([4]; 5b 80 mg/kg): 68.18 ± 4.84 (P = 0.007) %
Percentage of time in Open Arms ([4]; 5b 80 mg/kg): 31.8 ± 4.8 (P = 0.003) %
Total time duration in the Closed Arms ([4]; 5b 80 mg/kg): 181.68 ± 14.32 (P = 0.006) sec/closed arm
Total time duration in the Open Arms ([4]; 5b 80 mg/kg): 79.16 ± 12.0 (P = 0.001) sec/open arm
number of head dips (FIG. 4) ([4]; 5b 40, 60 and 80 mg/kg, injected 60 min before the test): increase in the number of head dips
time in the open arms, percentage of time (FIG. 3) [4, 5]: spent more time in the open arms
time in the open arms, total time expressed in seconds (FIG. 2) [4, 5]: spent more time in the open arms
